Experiment [1] has as its system platelets. In words: Dog antiplatelet IC50. In kind it is cell-based.
For experiment [2], the target named is thrombin (Bos taurus, UniProt P00735). In words: biochemical. The note with it: bovine; read-out: Bovine Antithrombin IC50.

In experiment [1], `CC[C@H](C)[C@H](NC(=O)[C@@H]1CCCN1C(=O)[C@H](CCC(=O)O)NC(=O)[C@H](Cc1c[nH]c2ccccc12)NC(=O)[C@H](CC(=O)O)NC(=O)CNC(=O)CCCCN)C(=O)N1CCC[C@H]1C(=O)N[C@@H](CCC(=O)O)C(=O)N[C@@H](CCC(=O)O)C(=O)N[C@@H](C)C(=O)N[C@@H](CC1CCCCC1)C(=O)N[C@H](CCC(=O)O)C(=O)O` [Example 2] gave an IC50 of 250 µM.
Consider `CC[C@H](C)[C@H](NC(=O)[C@@H]1CCCN1C(=O)[C@H](CCC(=O)O)NC(=O)[C@H](Cc1c[nH]c2ccccc12)NC(=O)[C@H](CC(=O)O)NC(=O)CNC(=O)[C@@H](N)CCCNC(=N)N)C(=O)N1CCC[C@H]1C(=O)N[C@@H](CCC(=O)O)C(=O)N[C@@H](CCC(=O)O)C(=O)N[C@@H](C)C(=O)N[C@@H](CC1CCCCC1)C(=O)N[C@H](CCC(=O)O)C(=O)O` [Example 3], for which the IC50 in experiment [2] amounted to 2.8 µM.

These data come from patent US5574012A, “Analogs of hirudin having anti-platelet activity” (Merrell Pharmaceuticals Inc., priority 1995, dated 1996).
